Legend:
MCF10A = assay: 53BP1 radiation induced foci (RIF) time response in MCF10A exposed to X-rays under ATM inhibition, fitted with Eq. 1; type: cell-based, human; conditions: for T1/2_1 (RIF induction half-life): 10 μM inhibitor; for α, RIF/Gy (absolute RIF yield): 10 μM inhibitor from 1 h pre-IR, one experiment
From the text: To test the validity of the mathematical model further, we perturbed the rates of RIF formation or RIF removal by inhibiting ataxia telangiectasia mutated (ATM) kinase activity with KU55933 (see Materials and Methods).
The cells were fixed for immunofluorescence at specific intervals after exposure to X-rays. We typically refer to “low dose” or “high dose” as doses below or equal to 0.1 Gy or larger than 1 Gy, respectively. For high-LET IR, cells were irradiated at the accelerator beam line of the National Aeronautics and Space Administration Space […] Laboratory at Brookhaven National Laboratory.
We are only briefly describing these procedures. For complete information, see Supplemental Information Materials and Methods. Immunostaining using anti-53BP1 (rabbit polyclonal, Bethyl Laboratories A300-272A) was performed according to previous staining protocol (Costes et al. (2006) Radiat. Res. 165: 505-515). For image acquisition, both live and fixed MCF10A were imaged using a Zeiss plan-apochromat 40× dry objective (N.A. of 0.95) at a fixed exposure time. Nondeconvolved 3D stacks were acquired and used for image analysis (10 slices of 0.5-μm steps for fixed cells and 3 slices of 1-μm step for live cells). All image manipulations, foci analysis, and statistics were done with Matlab (MathWorks, Inc.) and DIPimage (image processing toolbox for Matlab, Delft University of Technology). In contrast to previous intensity-based methods for RIF identification (Bocker and Iliakis (2006) Radiat. Res. 165: 113-124), we used a pattern recognition approach to detect RIF by applying a wavelet morphological filter to enhance RIF peaks in the image while reducing noise from nonspecific signals (Olivo-Marin (2002) Pattern Recognition 35: 1989-1996). Nuclear space occupied by RIF was identified by applying a constant threshold on the wavelet filtered image, and watershed algorithm was used to separate touching RIF. To test if focus size could affect the accuracy of automatic RIF detection, we applied the software on simulated data where foci sizes and densities had different values (i.e., 1 to 40 foci/nucleus were simulated with four distinct sizes: 0.1, 0.4, 1.3, and 2.4 μm^3; FIG. 17). […] Finally, in order to extract the number of “real” RIF from the number of background foci in each scored nucleus, we introduced a background subtraction method that assumes the measured RIF distribution is the result of a convolution between the “real” RIF distribution and the background foci distribution (FIG. 18). For quantification of RIF in live cells, we counted both the cumulative and instantaneous number of RIF manually in 3D time-lapse images. Time interval varied between experiments and was generally set to 10-min interval for the first hour, followed by 30-min interval afterwards. This setting was optimum to minimize phototoxicity and specimen bleaching. Because of the difficulty of software to track individual foci in successive time lapse, analysis had to be done manually in a blind manner on processed images.
In order to interpret RIF kinetics in an unbiased manner, we introduce a simple mathematical model describing RIF formation where one DSB is detected at a rate k leading to one RIF, and one RIF is resolved after repair at a rate k2, assuming both processes are irreversible. This model can be noted as follows:
where α is the number of naked DSB/Gy before formation of RIF and D is the dose delivered to the cell. Alpha (α) should be constant for all doses. Further details are provided in the supporting information materials and methods regarding the way Eq. 1 is fitted.

[1] = target: T1, ataxia telangiectasia mutated (ATM) kinase (Homo sapiens, UniProt Q13315); assay: Inhibition of ATM measured by Western blot of P53-S15p; type: cell-based; conditions: 10 μM inhibitor, MCF10A
T1 construct: endogenous in cells; host or cells: MCF10A (human mammary epithelial cells, ATCC)
T1 sequence (Q13315 whole entry, change not shown): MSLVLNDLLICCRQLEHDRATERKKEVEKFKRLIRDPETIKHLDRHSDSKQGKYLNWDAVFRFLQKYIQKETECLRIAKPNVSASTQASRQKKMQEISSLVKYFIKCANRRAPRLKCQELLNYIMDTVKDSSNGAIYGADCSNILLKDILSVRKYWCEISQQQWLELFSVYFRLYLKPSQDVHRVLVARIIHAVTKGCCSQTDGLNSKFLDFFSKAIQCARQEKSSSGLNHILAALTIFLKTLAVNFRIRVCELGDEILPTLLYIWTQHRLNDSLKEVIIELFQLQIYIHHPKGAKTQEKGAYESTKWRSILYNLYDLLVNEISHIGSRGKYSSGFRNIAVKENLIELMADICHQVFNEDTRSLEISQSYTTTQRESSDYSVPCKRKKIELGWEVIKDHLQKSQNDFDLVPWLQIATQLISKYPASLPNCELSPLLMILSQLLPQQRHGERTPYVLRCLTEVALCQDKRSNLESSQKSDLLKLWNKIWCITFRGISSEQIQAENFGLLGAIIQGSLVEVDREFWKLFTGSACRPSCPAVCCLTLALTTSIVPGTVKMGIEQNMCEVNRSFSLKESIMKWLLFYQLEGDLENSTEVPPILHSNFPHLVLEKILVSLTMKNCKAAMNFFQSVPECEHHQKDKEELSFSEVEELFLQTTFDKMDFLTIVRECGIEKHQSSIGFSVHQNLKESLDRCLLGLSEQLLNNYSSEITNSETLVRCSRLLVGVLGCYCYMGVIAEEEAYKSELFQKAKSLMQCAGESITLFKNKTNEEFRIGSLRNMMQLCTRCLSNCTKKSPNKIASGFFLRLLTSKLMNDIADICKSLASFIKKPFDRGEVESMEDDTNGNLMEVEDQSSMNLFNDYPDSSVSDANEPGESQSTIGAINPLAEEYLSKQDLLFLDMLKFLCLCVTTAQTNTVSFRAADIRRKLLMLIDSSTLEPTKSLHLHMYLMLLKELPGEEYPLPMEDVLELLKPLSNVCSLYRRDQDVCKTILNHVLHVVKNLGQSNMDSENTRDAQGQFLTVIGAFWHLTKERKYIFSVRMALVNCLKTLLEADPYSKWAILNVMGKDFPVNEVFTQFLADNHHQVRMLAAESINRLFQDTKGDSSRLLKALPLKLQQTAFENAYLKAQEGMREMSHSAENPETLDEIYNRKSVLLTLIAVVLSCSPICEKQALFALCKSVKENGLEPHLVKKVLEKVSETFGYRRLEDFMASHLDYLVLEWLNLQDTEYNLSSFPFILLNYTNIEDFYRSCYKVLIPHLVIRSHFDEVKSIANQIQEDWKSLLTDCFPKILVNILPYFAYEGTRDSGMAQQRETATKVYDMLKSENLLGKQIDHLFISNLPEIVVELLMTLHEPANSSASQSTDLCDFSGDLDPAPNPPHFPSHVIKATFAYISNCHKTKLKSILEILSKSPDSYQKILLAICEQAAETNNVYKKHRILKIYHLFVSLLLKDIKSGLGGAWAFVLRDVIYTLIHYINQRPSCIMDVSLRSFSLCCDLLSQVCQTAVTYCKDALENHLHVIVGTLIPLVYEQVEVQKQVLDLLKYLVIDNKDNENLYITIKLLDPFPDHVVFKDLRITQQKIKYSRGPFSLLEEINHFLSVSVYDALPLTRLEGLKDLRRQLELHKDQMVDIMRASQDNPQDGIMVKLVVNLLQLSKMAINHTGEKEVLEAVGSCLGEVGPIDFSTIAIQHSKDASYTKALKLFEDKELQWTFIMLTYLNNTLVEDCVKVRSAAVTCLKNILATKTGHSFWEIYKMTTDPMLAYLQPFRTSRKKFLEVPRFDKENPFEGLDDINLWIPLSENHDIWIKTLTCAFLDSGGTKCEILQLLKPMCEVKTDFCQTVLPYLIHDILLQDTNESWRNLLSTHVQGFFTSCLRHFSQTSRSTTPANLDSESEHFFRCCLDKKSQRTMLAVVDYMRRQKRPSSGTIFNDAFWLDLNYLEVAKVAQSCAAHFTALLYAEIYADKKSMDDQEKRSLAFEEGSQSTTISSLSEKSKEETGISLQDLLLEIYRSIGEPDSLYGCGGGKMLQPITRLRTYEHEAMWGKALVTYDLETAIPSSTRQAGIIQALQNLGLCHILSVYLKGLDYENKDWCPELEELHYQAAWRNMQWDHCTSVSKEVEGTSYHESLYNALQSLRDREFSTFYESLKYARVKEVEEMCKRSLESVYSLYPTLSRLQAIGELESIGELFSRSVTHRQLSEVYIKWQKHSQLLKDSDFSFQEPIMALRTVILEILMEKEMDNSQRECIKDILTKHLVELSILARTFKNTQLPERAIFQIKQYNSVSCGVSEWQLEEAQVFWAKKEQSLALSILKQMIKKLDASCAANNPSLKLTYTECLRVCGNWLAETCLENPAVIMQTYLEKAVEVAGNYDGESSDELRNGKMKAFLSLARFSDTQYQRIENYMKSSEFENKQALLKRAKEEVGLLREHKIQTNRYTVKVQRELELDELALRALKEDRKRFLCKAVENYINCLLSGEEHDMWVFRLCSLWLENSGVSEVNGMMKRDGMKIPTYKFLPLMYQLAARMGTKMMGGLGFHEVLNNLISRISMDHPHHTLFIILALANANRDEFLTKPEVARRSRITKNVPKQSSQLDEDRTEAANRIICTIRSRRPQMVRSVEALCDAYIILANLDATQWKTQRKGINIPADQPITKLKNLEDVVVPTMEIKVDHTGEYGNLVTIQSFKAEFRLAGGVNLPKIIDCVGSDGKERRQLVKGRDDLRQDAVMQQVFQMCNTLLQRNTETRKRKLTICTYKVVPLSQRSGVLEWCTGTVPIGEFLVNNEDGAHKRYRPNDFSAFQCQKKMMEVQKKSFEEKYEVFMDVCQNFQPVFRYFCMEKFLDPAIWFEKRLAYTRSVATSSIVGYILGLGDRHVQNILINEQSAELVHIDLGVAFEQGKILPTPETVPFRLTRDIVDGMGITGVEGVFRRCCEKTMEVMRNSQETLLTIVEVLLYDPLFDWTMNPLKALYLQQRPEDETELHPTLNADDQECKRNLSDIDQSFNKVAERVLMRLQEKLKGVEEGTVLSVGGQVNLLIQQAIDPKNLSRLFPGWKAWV

O=c1cc(-c2cccc3c2Sc2ccccc2S3)oc(N2CCOCC2)c1 [KU55933]
T1/2_1 (RIF induction half-life) (MCF10A; 0.1 Gy X-rays): 8.3 min
α, RIF/Gy (absolute RIF yield) (MCF10A; 0.1 Gy X-rays): 25±17 RIF/Gy
α, RIF/Gy (absolute RIF yield) (MCF10A; 0.1 Gy X-rays, listed as ATM inhibition): 25 RIF/Gy
T1/2_1 (RIF induction half-life) (MCF10A; 0.4 Gy X-rays): 5.9 min
α, RIF/Gy (absolute RIF yield) (MCF10A; 0.4 Gy X-rays): 25 RIF/Gy
T1/2_1 (RIF induction half-life) (MCF10A; 1 Gy X-rays): 4.2 min
α, RIF/Gy (absolute RIF yield) (MCF10A; 1 Gy X-rays): 19 RIF/Gy
T1/2_1 (RIF induction half-life) (MCF10A; 2 Gy X-rays): 2.6 min
α, RIF/Gy (absolute RIF yield) (MCF10A; 2 Gy X-rays): 12±2 RIF/Gy
α, RIF/Gy (absolute RIF yield) (MCF10A; 2 Gy X-rays, listed as ATM inhibition): 12 RIF/Gy
detection half-lives with versus without ATM inhibition (MCF10A; across all doses): comparable
reduction of α versus normal conditions (MCF10A; after 0.1 Gy of X-rays): 3 fold
reduction of α versus normal conditions (MCF10A; after 2 Gy of X-rays): no significant reduction
RIF resolution with versus without ATM inhibition (MCF10A; at high doses): significantly slower
drop of RIF yield between 0.1 and 2 Gy (MCF10A; under ATM inhibition): 2 fold
overall number of RIF (MCF10A; under ATM inhibition versus normal media): largely diminished
phosphorylated p53 at S15 [1]: reduction

Reference: patent US20150017092A1, “DEVICES AND METHODS FOR DETERMINING SENSITIVITY TO RADIATION” (The Regents of the University of California, priority 2012, published 2015)
